From PubChem BioAssay (NCI) come the findings set out here.

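Cultured in 96-well plates, cells were exposed to test compound for 48 hours across five concentrations. The concentration for 50% growth inhibition is given as GI50. TGI: total growth inhibition.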 A value given as a limit tells only on which side of the number the result lay.

Test systems include A549 NSCLC; COLO 205 colon; HCT-116 colon; HOP-62 NSCLC; IGROV1 ovarian; KM12 colon; MOLT-4 leukemia; NCI-H522 lung; OVCAR-5 ovarian; SK-OV-3 ovarian.
What all share (experiment): NCI-60 cell line screen, 48 h

As for `O=C(O)CN1C(=O)c2ccc(NC(=O)C(=O)O)cc2S1(=O)=O`, the TGI with A549 NSCLC, in the test with COLO 205 colon, in the test on HCT-116 colon, in the test on HOP-62 NSCLC, with IGROV1 ovarian and in the test with KM12 colon was above 100 µM throughout. Further, the TGI in the test on MOLT-4 leukemia, in the test on NCI-H522 lung, with OVCAR-5 ovarian and in the test with SK-OV-3 ovarian was above 100 µM each time.
With `Nc1cccc(-c2cc(=O)c3cc4c(cc3[nH]2)OCO4)c1`, the TGI in the test with A549 NSCLC is above 47.8 µM; in the test with COLO 205 colon, 5.93 µM; in the test on HCT-116 colon, 3.62 µM; in the test on HOP-62 NSCLC it was 29.2 µM; in the test on KM12 colon, above 21.6 µM; in the test with MOLT-4 leukemia, above 100 µM. For the same compound, the values for the TGI with NCI-H522 lung, in the test with OVCAR-5 ovarian and in the test on SK-OV-3 ovarian were 0.881 µM, above 100 µM and above 28.5 µM, respectively.
With `CN(CCN)[C@H](CSSC[C@@H](c1ccccc1O)N(C)CCN)c1ccccc1O`, the TGI in the test on A549 NSCLC was 23.9 µM; in the test with COLO 205 colon it was above 53.6 µM; in the test on HCT-116 colon, 20.4 µM; in the test with HOP-62 NSCLC it was 28.6 µM; in the test with KM12 colon it was 28.2 µM; in the test on MOLT-4 leukemia, 23 µM. Further, the TGI in the test with NCI-H522 lung came to 33 µM; in the test on OVCAR-5 ovarian, 28.6 µM; in the test with SK-OV-3 ovarian it was 25 µM.
Turning to `Cc1ccc(C2=CC(=O)/C(=C\C(=O)c3ccc(Br)cc3)O2)c(C)c1`, the TGI in the test on A549 NSCLC was 48.4 µM; with COLO 205 colon, 14.3 µM; with HCT-116 colon, 19.8 µM; with HOP-62 NSCLC it was above 66.7 µM; in the test with IGROV1 ovarian, 40.4 µM; in the test with KM12 colon, 48.6 µM. In addition, the TGI in the test with MOLT-4 leukemia was above 47.9 µM; with NCI-H522 lung it was 3.38 µM; in the test with OVCAR-5 ovarian it was 56.7 µM; in the test on SK-OV-3 ovarian it was 29 µM.
With `ClC1=NSSC1(Cl)Cl`, the TGI with A549 NSCLC is above 100 µM; with COLO 205 colon, 30.8 µM; in the test on HCT-116 colon, above 100 µM; with HOP-62 NSCLC it was above 100 µM; in the test on IGROV1 ovarian, above 100 µM; in the test on KM12 colon it was above 100 µM. For the same compound, the TGI in the test on MOLT-4 leukemia came out at 53.4 µM; in the test on NCI-H522 lung, 38.8 µM; in the test on OVCAR-5 ovarian, 85 µM.
For the compound `NCCCN(CCCCN(CCCN)CCCc1ccccc1)CCCc1ccccc1`, the TGI in the test with A549 NSCLC is 9.49 µM; with COLO 205 colon, 3.18 µM; in the test on HCT-116 colon, 3.02 µM; with HOP-62 NSCLC, 25.4 µM; in the test on IGROV1 ovarian, 8.88 µM; in the test on KM12 colon it was 6.43 µM. Moreover, the TGI with MOLT-4 leukemia came to 5.21 µM; in the test on NCI-H522 lung, 7.17 µM; in the test with OVCAR-5 ovarian, 24.9 µM; in the test with SK-OV-3 ovarian, 14.1 µM.
Turning to `CC(=O)Oc1ccc2cc(Oc3cc(Cl)c(Cl)cc3Cl)c(=O)oc2c1`, the TGI in the test on A549 NSCLC was determined as 40.2 µM; with HCT-116 colon, 28.1 µM; in the test on HOP-62 NSCLC, 36.2 µM; in the test with IGROV1 ovarian it was 32.1 µM; in the test on KM12 colon, 25.6 µM; with MOLT-4 leukemia, 30.4 µM. Moreover, the TGI with NCI-H522 lung was 34.6 µM; in the test with OVCAR-5 ovarian, 71.2 µM.
`[CH3][Sn]([CH3])([CH3])[S]C(=S)N1CCOCC1`: the GI50 in the test on A549 NSCLC is 1070 nM; with COLO 205 colon, 78.6 nM; in the test on HCT-116 colon it was 146 nM; in the test on HOP-62 NSCLC it was 2.28 µM; in the test on IGROV1 ovarian, 690 nM; in the test with KM12 colon, 2110 nM. The GI50 was 135 nM in the test on MOLT-4 leukemia, 102 nM with NCI-H522 lung, 2500 nM in the test on OVCAR-5 ovarian and 9.81 µM with SK-OV-3 ovarian. The TGI is above 92.7 µM in the test on A549 NSCLC; 0.432 µM with COLO 205 colon; 2.03 µM with HCT-116 colon; 4.86 µM in the test with HOP-62 NSCLC; 8.52 µM with IGROV1 ovarian; 11.1 µM with KM12 colon. The TGI in the test with MOLT-4 leukemia was 4.05 µM; with NCI-H522 lung, 0.42 µM; in the test with OVCAR-5 ovarian, above 28.2 µM; in the test with SK-OV-3 ovarian, 29.3 µM.
On to `COC(=O)CN1CCN(c2cccc3c2CCCC3)CC1`, for which the TGI in the test with A549 NSCLC, in the test on COLO 205 colon, with HCT-116 colon, in the test on HOP-62 NSCLC, in the test with IGROV1 ovarian and in the test with KM12 colon was above 100 µM throughout. In addition, the TGI in the test with MOLT-4 leukemia, with NCI-H522 lung and in the test on OVCAR-5 ovarian was above 100 µM each time.
In the case of `CNC(=S)N/N=C/C(C)=N/NC(=S)NC`, the TGI with A549 NSCLC, in the test with COLO 205 colon, in the test on HCT-116 colon, in the test with HOP-62 NSCLC, with KM12 colon and in the test on MOLT-4 leukemia was above 100 µM in each case. For the same compound, the TGI in the test with NCI-H522 lung, in the test with OVCAR-5 ovarian and with SK-OV-3 ovarian was above 100 µM each time.
For `CNC(=O)OCc1cnc([N+](=O)[O-])n1C`, the TGI with A549 NSCLC, in the test with COLO 205 colon, in the test on HCT-116 colon, in the test with HOP-62 NSCLC, in the test on IGROV1 ovarian and with KM12 colon was above 100 µM throughout. Also, the TGI with MOLT-4 leukemia, in the test with NCI-H522 lung and in the test with OVCAR-5 ovarian was above 100 µM throughout.
In the case of `O=C(C[N+]12CN3CN(CN(C3)C1)C2)c1ccc(-c2ccccc2)cc1`, the TGI in the test with A549 NSCLC was above 100 µM; in the test on HCT-116 colon, 35.7 µM; in the test with HOP-62 NSCLC, 55.4 µM; in the test with IGROV1 ovarian it was 66.5 µM; in the test on KM12 colon it was 90.3 µM; in the test with MOLT-4 leukemia it was 42.9 µM. Moreover, the TGI in the test with NCI-H522 lung is 38.2 µM; in the test with OVCAR-5 ovarian it was 37.6 µM.
For `O=C(Nc1cccc(-n2ccc3c(NC(=O)c4ccccc4)ncnc32)c1)Nc1ccc(Cl)c(C(F)(F)F)c1`, the GI50 in the test on A549 NSCLC is 2110 nM; with COLO 205 colon, 2670 nM; with HCT-116 colon, 1850 nM; in the test on HOP-62 NSCLC, 5.62 µM; in the test on IGROV1 ovarian, 2920 nM; in the test on KM12 colon it was 1950 nM. Besides, the GI50 is 1770 nM with MOLT-4 leukemia, 1360 nM in the test with NCI-H522 lung and 2380 nM in the test on OVCAR-5 ovarian. Moreover, the TGI stood at 7.35 µM in the test with A549 NSCLC; 8.36 µM in the test on COLO 205 colon; 6.66 µM in the test with HCT-116 colon; 11.8 µM in the test with HOP-62 NSCLC; 17.1 µM with IGROV1 ovarian; 8.16 µM in the test on KM12 colon. Also, the values for the TGI in the test with MOLT-4 leukemia, with NCI-H522 lung and in the test on OVCAR-5 ovarian were 12.7 µM, 6.31 µM and 9.69 µM, respectively.
